Test results: US8563513B2, “Parathyroid hormone peptides and parathyroid hormone-related protein peptides and methods of use” (Van Andel Research Institute, priority 2009, dated 2013)
Like-named read-outs stand apart in the source and are kept apart here. Where no end group is shown, it is not given here.

Tests used:
[1] = biological target: T1, G protein-coupled receptor (RG) conformation of PTH1R (Homo sapiens, UniProt Q03431); test: Receptor binding assay in cell membranes, RG conformation; conditions: for IC50: n = 3, receptor co-expressed with dominant negative Gαs
T1 construct: expressed in transfected cells
T1 sequence (Q03431 27-593): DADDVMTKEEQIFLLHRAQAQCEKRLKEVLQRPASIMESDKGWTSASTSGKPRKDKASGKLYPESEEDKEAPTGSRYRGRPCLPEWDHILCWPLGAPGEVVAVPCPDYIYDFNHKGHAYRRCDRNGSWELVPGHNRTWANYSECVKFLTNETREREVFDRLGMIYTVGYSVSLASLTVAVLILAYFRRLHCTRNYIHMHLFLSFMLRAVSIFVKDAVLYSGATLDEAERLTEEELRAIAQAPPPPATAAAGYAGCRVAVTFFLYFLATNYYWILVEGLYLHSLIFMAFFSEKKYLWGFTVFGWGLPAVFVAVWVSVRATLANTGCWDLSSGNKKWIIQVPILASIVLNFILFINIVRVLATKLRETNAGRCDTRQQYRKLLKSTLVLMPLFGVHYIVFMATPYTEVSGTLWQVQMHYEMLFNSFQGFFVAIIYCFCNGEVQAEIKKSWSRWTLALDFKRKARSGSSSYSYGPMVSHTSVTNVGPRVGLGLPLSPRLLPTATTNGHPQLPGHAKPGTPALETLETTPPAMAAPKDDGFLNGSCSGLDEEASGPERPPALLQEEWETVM
Description: (§1) Receptor binding assay. Peptide binding to the G protein-uncoupled receptor (R0) and G protein-coupled receptor (RG) conformations in cell membranes was assessed as previously described (26).
(§2) Experimentally, the R0 conformation is studied by including GTPγS in the reactions to uncouple receptor and G protein and the RG conformation is studied by co-expressing the receptor with a dominant negative form of Gαs (23, 25).

[2] = biological target: T2, G protein-uncoupled receptor (R0) conformation of PTH1R (Homo sapiens, UniProt Q03431); test: Receptor binding assay in cell membranes, R0 conformation; conditions: for RO/RG: ratio of R0 and RG IC50; for R0 affinity compared to wild-type: in words
T2 sequence (Q03431 27-593): T1 sequence (Q03431 27-593)
Description: as §1, §2

[3] = biological target: T1, G protein-coupled receptor (RG) conformation of PTH1R; conditions: in words, reference (26); cited from earlier work
[4] = biological target: T2, G protein-uncoupled receptor (R0) conformation of PTH1R; conditions: in words, reference (26); cited from earlier work
PTH1R ECD = biological target: T3, PTH1R ECD (Homo sapiens, UniProt Q03431); conditions: previous work (27); cited from earlier work
T3 sequence (Q03431 27-186 limits assumed): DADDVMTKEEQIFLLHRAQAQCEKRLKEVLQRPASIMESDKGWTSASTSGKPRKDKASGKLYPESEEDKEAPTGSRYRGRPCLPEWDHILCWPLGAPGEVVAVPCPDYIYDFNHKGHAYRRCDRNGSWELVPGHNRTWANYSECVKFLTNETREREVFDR

[5] = biological target: T4, MBP-PTH1R ECD-H6 fusion protein (Homo sapiens, UniProt Q03431); test: AlphaScreen ECD-peptide competition binding assay; conditions: for IC50: biotinylated PTH(7-34)NH2 23 nM, MBP-PTH1R ECD 23 nM, read-out: IC50, competition of the AlphaScreen interaction; for ECD-binding (ability to compete biotin-PTH / MBP-PTH1R-ECD interaction): single point, peptide 20 μM, in words
T4 construct: fusion protein containing residues 29-187 of PTH1R fused to the C-terminus of MBP; made in house; host or cells: E. coli
T4 sequence (Q03431 29-187): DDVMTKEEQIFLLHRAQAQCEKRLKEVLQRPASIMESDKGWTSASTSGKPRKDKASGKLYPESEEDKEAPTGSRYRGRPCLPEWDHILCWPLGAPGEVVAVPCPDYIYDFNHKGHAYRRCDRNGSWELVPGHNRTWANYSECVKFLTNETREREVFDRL
Description: ECD-peptide binding assays. The binding of peptides to the MBP-PTH1R ECD-H6 fusion protein was assessed using an AlphaScreen assay (Perkin-Elmer). […] The pre-coupling reactions were mixed, un-labeled competitor peptides were added as indicated, and the reactions were incubated 4 to 5 hrs to reach equilibrium. Photon counts were recorded in 384-well optiplates using an Envision 2104 plate reader (Perkin-Elmer). Prism 5.0 software (GraphPad Software, San Diego) was used to fit the data to a fixed-slope dose-response inhibition equation for determination of IC50 values. Real-time analysis of the binding of peptides to the isolated PTH1R ECD using the Octet Red system (ForteBio) was performed as described in below.

hPTH1R = biological target: T5, hPTH1R (Homo sapiens, UniProt Q03431); test: cAMP accumulation dose-response assay in COS cells; assay type: cell-based
T5 construct: expressed in transfected cells; host or cells: COS-1 cells (ATCC), transient, DEAE-dextran
T5 sequence (Q03431 27-593): T1 sequence (Q03431 27-593)
Description: COS cells transiently expressing PTH1R were stimulated with the indicated peptides for 30 min at 37° C. after which the cells were lysed and cAMP content was assessed. […] The cells were stimulated with the indicated peptide for 10 min at room temperature, the ligand was washed out, and cAMP accumulation was assessed at the indicated times after wash out. The results are the average of duplicate samples and are normalized to the level of cAMP induced during the initial stimulation.
cAMP assays. COS-1 cells obtained from American Type Culture Collection (Manassas, Va.) were cultured in Dulbecco's modified Eagle's medium supplemented with 10% fetal bovine serum in a 37° C./5% CO2 incubator. 500,000 cells were seeded in a 10 cm dish and transfected the following morning by the DEAE-dextran method with 3 μg pcDNA3.1 vector encoding hPTH1R. Approximately 40,000 transfected cells were seeded in each well of a 96-well plate 24 hr post-transfection. 48 hrs post-transfection the cells were washed twice with PBS, pH 7.4 and stimulated with peptide. […] The reactions were stopped with cold 6% perchloric acid and the cell lysates were neutralized with KHCO3. cAMP was measured with a LANCE cAMP kit (Perkin-Elmer) according to the manufacturer's instructions. […]

[6] = read-out: IC50 Log M RG (converted)

Row | Compound | IC50 [1, 6] | RO/RG [2] | also measured
1 | CC[C@H](C)[C@H](NC(=O)[C@H](CC(C)C)NC(=O)[C@H](CCCCN)NC(=O)[C@H](CCCNC(=N)N)NC(=O)[C@H](CC(C)C)NC(=O)[C@H](Cc1c[nH]c2ccccc12)NC(=O)[C@H](CCC(=O)O)NC(=O)[C@@H](NC(=O)[C@H](CCCNC(=N)N)NC(=O)[C@H](CCC(=O)O)NC(=O)[C@H](CCSC)NC(=O)[C@H](CO)NC(=O)[C@H](CC(N)=O)NC(=O)[C@H](CC(C)C)NC(=O)[C@H](Cc1c[nH]cn1)NC(=O)[C@H](CCCCN)NC(=O)CNC(=O)[C@H](CC(C)C)NC(=O)[C@H](CC(N)=O)NC(=O)[C@H](Cc1c[nH]cn1)NC(=O)[C@H](CCSC)NC(=O)[C@H](CC(C)C)NC(=O)[C@H](CCC(N)=O)NC(=O)[C@@H](NC(=O)[C@H](CCC(=O)O)NC(=O)[C@H](CO)NC(=O)[C@@H](NC(=O)[C@@H](N)CO)C(C)C)[C@@H](C)CC)C(C)C)C(=O)N[C@@H](CCC(N)=O)C(=O)N[C@@H](CC(=O)O)C(=O)N[C@H](C(=O)N[C@@H](Cc1c[nH]cn1)C(=O)N[C@@H](CC(N)=O)C(=O)N[C@@H](Cc1ccccc1)C(N)=O)C(C)C [K27L/L28I] | 0.316 nM | – | –
2 | SVSEIQLMHNLGKHLNSMERVEWLRKKIQDIHNF-NH2 [L28I/V31I] | 0.251 nM | 135 | IC50 ([1]; read-out: IC50 (nM) RG): 0.31 nM
3 | PTH(1-28): PTH fragment 1-28, literature peptide (26) (SVSEIQLMHNLGKHLNSMERVEWLRKKL; Parathyroid hormone; UniProt P01270 32-59, looked up, fragment) | – | – | RG affinity compared to PTH(1-34) [3]: diminished RG affinity; RG-selectivity compared to PTH(1-34) [4]: more RG-selective
4 | PTH(15-34)NH2: C-terminally amidated 15-34 fragment of PTH (LNSMERVEWLRKKLQDVHNF-NH2) | – | – | Kd (PTH1R ECD): ~1000 nM
5 | AVSEHQLLHDKGKSIQDLRRRFWLHHKLAEVHTA-NH2 [F23W/L27K/I28L/I31V] | 0.0794 nM | 586 | R0 affinity compared to wild-type [2]: slightly decreased R0 affinity
6 | GKHLNSMERVEWLRKKLQDVHNF-NH2 [PTH(12-34)NH2, reference compound] | – | – | IC50 [5]: ~1000 nM
7 | SVSEIQLMHNLGKHLNSMERVEWLRKKLQDIHNF-NH2 [V31I] | 0.251 nM | 110 | IC50 ([1]; read-out: IC50 (nM) RG): 0.31 nM
8 | SVSEIQLMHNLGKHLNSMERVEFLRKKIQDVHNF-NH2 [W23F/L28I] | – | 190 | IC50 ([1]; read-out: IC50 (nM) RG): 0.2 nM
9 | CC[C@H](C)[C@H](NC(=O)[C@H](CC(C)C)NC(=O)[C@H](Cc1c[nH]cn1)NC(=O)[C@H](Cc1c[nH]cn1)NC(=O)[C@H](CC(C)C)NC(=O)[C@H](Cc1ccccc1)NC(=O)[C@H](Cc1ccccc1)NC(=O)[C@H](CCCNC(=N)N)NC(=O)[C@H](CCCNC(=N)N)NC(=O)[C@H](CCCNC(=N)N)NC(=O)[C@H](CC(C)C)NC(=O)[C@H](CC(=O)O)NC(=O)[C@H](CCC(N)=O)NC(=O)[C@@H](NC(=O)[C@H](CO)NC(=O)[C@H](CCCCN)NC(=O)CN)[C@@H](C)CC)C(=O)N[C@@H](C)C(=O)N[C@@H](CCC(=O)O)C(=O)N[C@H](C(=O)N[C@@H](Cc1c[nH]cn1)C(=O)N[C@H](C(=O)N[C@@H](C)C(=O)O)[C@@H](C)O)[C@@H](C)CC [PTHrP(12-34)OH, reference compound] | – | – | IC50 [5]: ~2000 nM
10 | SVSEIQLMHNLGKHLNSMERVEWLRKLLQDVHNF-NH2 [K27L] | – | 11.9 | –
11 | SVSEIQLMHNLGKHLNSMERVEFLRKKLQDIHNF-NH2 [W23F/V31I] | – | 386 | R0 affinity compared to wild-type [2]: dramatically reduced R0 affinity; RG affinity compared to wild-type ([1]; in words): normal RG affinity; maximal cAMP levels relative to those obtained with the wt peptides (hPTH1R; COS cells transiently expressing PTH1R): ~80%; potency of cAMP response compared to wt peptides (hPTH1R; in words): essentially the same as the wt peptides; ECD-binding (ability to compete biotin-PTH / MBP-PTH1R-ECD interaction) [5]: poor ECD-binding
12 | SVSEIQLMHNLGKHLNSMERVEWLRKLLQDIHNF-NH2 [K27L/V31I] | 0.501 nM | 36.8 | –
13 | SVSEIQLMHNLGKHLNSMERVEFLRKKLQDVHNF-NH2 [W23F] | 0.2 nM | 59 | –
14 | SVSEIQLMHNLGKHLNSMERVEWLRKKIQDVHNF-NH2 [L28I] | – | 45 | IC50 ([2]; n = 3, GTPγS to uncouple receptor and G protein, read-out: IC50 Log M RO (converted)): 3.98 nM; IC50 ([1]; read-out: IC50 (nM) RG): 0.1 nM
15 | SVSEIQLMHNLGKHLNSMERVEFLRKLIQDIHNF-NH2 [W23F/K27L/L28I/V31I] | 0.631 nM | 68 | –
16 | SVSEIQLMHNLGKHLNSMERVEFLRKLLQDVHNF-NH2 [W23F/K27L] | 0.251 nM | 26.4 | –
17 | quadruply mutant PTHrP peptide: PTHrP(12-34)NH2 scaffold with swaps at all four positions 23′, 27′, 28′, 31′ (GKSIQDLRRRFWLHHKLAEVHTA-NH2) | – | – | ECD-binding (ability to compete biotin-PTH / MBP-PTH1R-ECD interaction) [5]: normal binding to the ECD
